Tests used:
[1] = system: RNAPII; assay: ChIP-seq of RNAPII occupancy in Raji cells; type: cell-based, human; conditions: ChIP-seq with spike-in, result in words
Procedure: ChIP assays were performed according to the manufacturer’s protocol using a SimpleChIP® Plus Sonication Chromatin IP Kit (Cell Signaling Technology, Danvers, MA, USA, (#56383). Briefly, cells were fixated with 1% formaldehyde (Sigma Aldrich, F8775) for 8 min, incubated with glycine (50 mM final) for 10 min and washed three times with PBS. After cell lysis and chromatin extraction, chromatin was sonicated to 100–500 bp using a BioRuptor sonicator (Diagenode), followed by centrifugation at 16,000×g for 10 min at 4 °C. To control for experimental variation, our spike-in data were normalized to a spike-in control consisting of a small amount of chromatin from another species. Briefly, Baf3 cell lysates were sonicated exactly as described above and added at a 1:100 ratio of Raji cells to lysates. […] The Qubit® 3.0 A fluorometer was used for quantitation of the ChIP library. […]
The ChIP libraries were sequenced on Illumina HiSeq platform in 150 bp paired-end reads. After quality control, the clean reads were aligned to the human reference genome (Homo sapiens. GRCh38.87v2) with Bowtie v2.1.0. Unambiguously mapped reads were retained for subsequent generation of binding profiles, heatmaps and calling of peaks. […] Mapped reads were visualized using the Integrative Genomics Viewer (IGV). We next used the murine spike-in to quantitatively normalize different samples. […]

[2] = system: TRIB3-MYC interaction; assay: SIM imaging and Co-IP of the TRIB3-MYC interaction in Raji cells; type: cell-based, human; conditions: SIM (30 min) and Co-IP (4 μM, six hours), versus PCON, result in words
Procedure: Co-IP experiments were performed as described previously. Briefly, cells were collected and lysed for 30 min on ice. Soluble lysates were incubated with the indicated antibodies at 4 °C overnight, followed by incubation with Protein A/G Plus-Agarose (Santa Cruz Biotechnology, TX, USA) at 4 °C for 2 h. Soluble lysates were incubated with the indicated Anti-Myc magnetic beads (Bimake.com, B26302), Anti-Flag Affinity Gel (Bimake.com, B23102) or Anti-HA Affinity Gel (Bimake.com, B23302) at 4 °C overnight. Immunocomplexes were separated from the beads and then boiled for 10 min. The precipitated proteins were subjected to SDS-PAGE and blotted with specific antibodies. For immunoblotting assays, proteins were extracted from cells, spleens, or lymphoma tissues using RIPA buffer (Cell Signaling Technology, MA, USA). A BCA Protein Assay Kit was used to determine protein concentrations. Protein extracts were separated by SDS-PAGE, transferred onto PVDF membranes, and subjected to immunoblot analysis. Western blot images were captured by a Tanon 5200 chemiluminescent imaging system (Tanon, Shanghai, […]). Human lymphoma and benign LN paraffin tissue microarrays were purchased from US Biomax (LM482a).
Cells (~20,000) were grown on coverslips and fixed with formalin after the indicated treatment. […]

HLYVSPWGGKRREQLKHKLEQLR [PCM4, fused peptide generated by linking CM4 to a cell-penetrating peptide]
association of RNAPII with promoters [1]: globally reduced the association of RNAPII with promoters | colocalization and interaction of TRIB3 with MYC in lymphoma cells [2]: inhibited the colocalization and interaction of TRIB3 with MYC

Reference: PMC7725785, “TRIB3 promotes MYC-associated lymphoma development through suppression of UBE3B-mediated MYC degradation” (Nature Communications, 2020)
